In US7074959B2, “Methods and systems for remediating hydrazine-contaminated equipment and/or surfaces” (New Mexico Highlands University, priority 2002, dated 2006):

Legend:
[1] = solubility of the hydrazine/2-ketoglutaric acid adduct in water; assay type: physicochemical; settings: allows separation of most of the adduct by simple filtration
Excerpt: FIG. 3 illustrates a schematic diagram 300 depicting a reaction of 2-ketoglutataric acid, which provides a near quantitative conversion of hydrazine to a 6-oxo-1,4,5,6-tetrahydro-pyridazine-3-carbonic acid, a preferred embodiment of the present invention. In general, the chemical transformation depicted in schematic diagram 300 of FIG. 3 allows for the removal of hydrazine from aqueous solutions generated by the decontamination processes described herein. The reaction with concentrated hydrazine also can provide the desired product with some evolution of heat.

[2] = MSDS listing; cited from earlier work

O=C1CCC(C(=O)O)=NN1 [6-oxo-1,4,5,6-tetrahydro-pyridazine-3-carbonic acid]
solubility in water [1]: low solubility
known acute toxicities listed in MSDS [2]: does not list any known acute toxicities
